Tests used:
[1] = target: T1, human muscarinic M4 receptor (Homo sapiens, UniProt P08173); experiment: Alphascreen Surefire phospho-ERK1/2 functional assay, M4; type: cell-based; conditions: for EC50 / % Emax cf. ACh, M4: CHO cells stably expressing human M4; for EC50: phospho-ERK1/2, * = variable results, read-out: pEC50 M4 (converted); for Emax: CHO, read-out: % Emax cf. ACh, M4, CHO cells stably expressing human M4; for Emax / % Emax cf. ACh, M4: relative to ACh
T1 construct: expressed in transfected cells
T1 sequence (P08173 1-479): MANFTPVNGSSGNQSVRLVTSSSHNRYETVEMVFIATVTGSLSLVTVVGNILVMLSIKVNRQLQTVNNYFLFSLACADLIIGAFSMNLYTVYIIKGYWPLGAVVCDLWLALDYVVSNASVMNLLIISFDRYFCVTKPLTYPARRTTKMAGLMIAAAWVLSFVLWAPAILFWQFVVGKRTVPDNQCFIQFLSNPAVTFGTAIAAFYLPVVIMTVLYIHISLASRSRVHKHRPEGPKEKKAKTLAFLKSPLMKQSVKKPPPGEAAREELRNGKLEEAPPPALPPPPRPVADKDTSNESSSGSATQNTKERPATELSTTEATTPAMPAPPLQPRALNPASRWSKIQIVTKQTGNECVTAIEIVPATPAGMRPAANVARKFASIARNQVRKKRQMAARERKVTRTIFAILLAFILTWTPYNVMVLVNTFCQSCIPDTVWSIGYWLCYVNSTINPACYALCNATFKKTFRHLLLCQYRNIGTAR

[2] = target: T2, human muscarinic M1 receptor (Homo sapiens, UniProt P11229); experiment: Alphascreen Surefire phospho-ERK1/2 functional assay, M1; type: cell-based; conditions: for EC50 / % Emax cf. ACh, M1: CHO cells stably expressing human M1; for EC50: phospho-ERK1/2, * = variable results, read-out: pEC50 M1 (converted); for Emax: CHO, read-out: % Emax cf. ACh, M1, CHO cells stably expressing human M1; for Emax / % Emax cf. ACh, M1: relative to ACh
T2 sequence (P11229 1-460): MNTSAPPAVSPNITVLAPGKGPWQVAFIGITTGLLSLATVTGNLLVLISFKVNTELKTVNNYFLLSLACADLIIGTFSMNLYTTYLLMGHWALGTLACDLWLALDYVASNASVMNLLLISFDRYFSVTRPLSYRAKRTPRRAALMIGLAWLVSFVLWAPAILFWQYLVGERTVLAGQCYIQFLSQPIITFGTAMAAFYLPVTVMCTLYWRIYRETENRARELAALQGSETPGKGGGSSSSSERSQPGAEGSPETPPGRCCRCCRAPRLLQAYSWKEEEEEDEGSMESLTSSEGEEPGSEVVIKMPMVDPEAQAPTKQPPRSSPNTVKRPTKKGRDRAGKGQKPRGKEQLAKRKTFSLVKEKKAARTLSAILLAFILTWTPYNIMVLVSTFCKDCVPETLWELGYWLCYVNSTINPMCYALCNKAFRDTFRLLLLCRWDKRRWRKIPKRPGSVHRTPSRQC

[3] = target: human muscarinic M3 receptor (Homo sapiens, UniProt P20309); experiment: Alphascreen Surefire phospho-ERK1/2 functional assay, M3; conditions: for Emax: CHO, read-out: % Emax cf. ACh, M3, CHO cells stably expressing human M3; for Emax / % Emax cf. ACh, M3: relative to ACh; for EC50: pEC50 M3, CHO cells stably expressing human M3
Sequence of human muscarinic M3 receptor (P20309 whole entry): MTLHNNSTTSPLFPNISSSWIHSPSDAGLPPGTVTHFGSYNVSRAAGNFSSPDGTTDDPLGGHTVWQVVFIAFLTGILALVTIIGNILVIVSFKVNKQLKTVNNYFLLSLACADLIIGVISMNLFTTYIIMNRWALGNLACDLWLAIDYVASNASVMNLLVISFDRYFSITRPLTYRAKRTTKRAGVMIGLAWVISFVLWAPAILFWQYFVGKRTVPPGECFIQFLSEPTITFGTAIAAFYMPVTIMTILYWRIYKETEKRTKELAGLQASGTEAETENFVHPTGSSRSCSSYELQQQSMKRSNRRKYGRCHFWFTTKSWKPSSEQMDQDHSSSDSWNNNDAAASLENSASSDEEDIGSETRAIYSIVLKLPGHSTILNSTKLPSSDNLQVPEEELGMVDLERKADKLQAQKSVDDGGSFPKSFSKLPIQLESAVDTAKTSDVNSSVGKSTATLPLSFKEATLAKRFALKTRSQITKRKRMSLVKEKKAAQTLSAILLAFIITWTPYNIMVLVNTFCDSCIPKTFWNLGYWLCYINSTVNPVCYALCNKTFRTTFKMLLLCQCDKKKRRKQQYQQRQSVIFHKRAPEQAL

[4] = target: T3, human muscarinic M2 receptor (Homo sapiens, UniProt P08172); experiment: Alphascreen Surefire phospho-ERK1/2 functional assay, M2; conditions: for Emax: CHO, read-out: % Emax cf. ACh, M2, CHO cells stably expressing human M2
T3 sequence (P08172 1-466): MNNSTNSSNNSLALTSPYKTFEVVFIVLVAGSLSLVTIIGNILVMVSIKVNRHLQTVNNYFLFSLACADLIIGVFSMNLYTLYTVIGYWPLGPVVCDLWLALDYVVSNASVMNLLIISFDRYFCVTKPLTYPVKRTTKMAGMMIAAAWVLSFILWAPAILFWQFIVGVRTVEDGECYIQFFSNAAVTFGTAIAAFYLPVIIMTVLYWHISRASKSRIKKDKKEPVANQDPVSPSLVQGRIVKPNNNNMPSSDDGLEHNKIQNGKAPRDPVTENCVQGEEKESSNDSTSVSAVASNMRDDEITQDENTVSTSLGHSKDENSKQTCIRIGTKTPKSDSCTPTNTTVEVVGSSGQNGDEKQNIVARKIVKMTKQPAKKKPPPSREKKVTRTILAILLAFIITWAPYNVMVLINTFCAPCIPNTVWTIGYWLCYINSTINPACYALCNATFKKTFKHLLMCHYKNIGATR

[5] = phospho-ERK1/2, * = variable results
[6] = CHO cells stably expressing human M3

Row | EC50 [1] [nM] | Emax [1] [%] | EC50 [2] [nM] | Emax [2] [%] | Emax [3] [%] | EC50 [3, 5] [nM] | EC50 [4] [nM] | Emax ([4]; relative to ACh) [%] | % Emax cf. ACh, M4 [1] [%] | % Emax cf. ACh, M1 [2] [%] | % Emax cf. ACh, M3 [3, 6] [%] | pEC50 M3 ([3]; CHO cells stably expressing human M3, phospho-ERK1/2, * = variable results) | pEC50 M2 ([4]; CHO cells stably expressing human M2, phospho-ERK1/2, * = variable results) | % Emax cf. ACh, M2 ([4]; CHO cells stably expressing human M2, relative to ACh) [%] | Compound
1 | 31.6 | 70 | 501 | 37 | 19 | > 20000 | > 20000 | 2 |  |  |  |  |  |  | CCOC(=O)N1CCC2(CC(N3CCC([C@@H]4CCCN4c4ccccn4)CC3)C2)C1 (single isomer, unassigned) [2-79 Isomer 2]
2 | 20 | 107 | 126 | 98 | 18 | > 20000 | > 20000 | 16 |  |  |  |  |  |  | CCOC(=O)N1CCC2(CC(N3CCC([C@@H]4CCCN4c4ccncc4)CC3)C2)C1 (single isomer, unassigned) [2-80 Isomer 2]
3 | 20 | 70 | 501 | 52 | 0 | > 20000 | > 20000 | 1 |  |  |  |  |  |  | CCOC(=O)N1CCC2(CC(N3CCC([C@@H]4CCCN4c4nccs4)CC3)C2)C1 (single isomer, unassigned) [2-82 Isomer 2]
4 | 20 | 82 | 251 | 36 |  | > 20000 | > 20000 |  |  |  |  |  |  |  | CCOC(=O)N1CCC2(CC(N3CCC(N4CCC[C@@H]4C(=O)OC)CC3)C2)C1 (single isomer, unassigned) [2-84 Isomer 2]
5 | 15.8 | 100 | 398 | 46 | 3 | > 20000 | > 20000 | 54 |  |  |  |  |  |  | CCOC(=O)N1CCC2(CC(N3CCC(N4CC(F)(F)C[C@@H]4C(=O)OC)CC3)C2)C1 (single isomer, unassigned) [2-87 Isomer 2]
6 | 39.8 | 44 | 316 | 25 | 5 | > 20000 | > 20000 | 80 |  |  |  |  |  |  | CCOC(=O)N1CCC2(CC(N3CCC(N4CC(F)(F)C[C@@H]4C(=O)NC)CC3)C2)C1 (single isomer, unassigned) [2-88 Isomer 2]

Further lines, the compound ahead of its results:

Row | Compound | EC50 [1] [nM] | Emax [1] [%] | EC50 [2] [nM] | Emax [2] [%] | Emax [3] [%] | EC50 [3, 5] [nM] | EC50 [4] [nM] | Emax ([4]; relative to ACh) [%] | % Emax cf. ACh, M4 [1] [%] | % Emax cf. ACh, M1 [2] [%] | % Emax cf. ACh, M3 [3, 6] [%] | pEC50 M3 ([3]; CHO cells stably expressing human M3, phospho-ERK1/2, * = variable results) | pEC50 M2 ([4]; CHO cells stably expressing human M2, phospho-ERK1/2, * = variable results) | % Emax cf. ACh, M2 ([4]; CHO cells stably expressing human M2, relative to ACh) [%]
7 | CCOC(=O)N1CCC2(CC(N3CCC([C@@H]4CCCN4C(=O)CCNC(=O)OCc4ccccc4)CC3)C2)C1 (single isomer, unassigned) [2-65 Isomer 2] | 7.94 | 107 | 158 | 60 | 1 | > 20000 | > 20000 | 1 |  |  |  |  |  | 
8 | CCOC(=O)N1CCC2(CC(N3CCC([C@@H]4CCCN4C(=O)CCN)CC3)C2)C1 (single isomer, unassigned) [2-66 Isomer 2] | 1.26 | 115 | 39.8 | 96 | 8 | > 20000 | > 20000 | 18 |  |  |  |  |  | 
9 | CCOC(=O)N1CCC2(CC(N3CCC([C@@H]4CCCN4C(=O)OCCNC)CC3)C2)C1 (single isomer, unassigned) [2-67 Isomer 2] | 20 | 79 | > 20000 | 19 | 1 | > 20000 | > 20000 | 67 |  |  |  |  |  | 
10 | CCOC(=O)N1CCC2(CC(N3CCC([C@@H]4CCCN4CCF)CC3)C2)C1 (single isomer, unassigned) [2-68 Isomer 2] | 63.1 | 73 | 1000 | 32 | 6 | > 20000 | > 20000 | 4 |  |  |  |  |  | 
11 | CCOC(=O)N1CCC2(CC(N3CCC([C@@H]4CCCN4CC(F)(F)F)CC3)C2)C1 (single isomer, unassigned) [2-69 Isomer 2] | 12.6 | 110 | 398 | 87 | 2 | > 20000 | > 20000 | 3 |  |  |  |  |  | 
12 | CCOC(=O)N1CCC2(CC(N3CCC([C@@H]4CCCN4CCC(F)(F)F)CC3)C2)C1 (single isomer, unassigned) [2-70 Isomer 2] | 31.6 |  | 1580 |  | 3 | > 20000 | > 20000 | 1 | 111 | 93 |  |  |  | 
13 | CCOC(=O)N1CCC2(CC(N3CCC([C@@H]4CCCN4CC(=O)OC)CC3)C2)C1 (single isomer, unassigned) [2-72 Isomer 2] | 79.4 | 52 | 794 | 30 | 10 | > 20000 | > 20000 | 13 |  |  |  |  |  | 
14 | CCOC(=O)N1CCC2(CC(N3CCC([C@@H]4CCCN4Cc4ccccc4)CC3)C2)C1 (single isomer, unassigned) [2-74 Isomer 2] | 79.4 | 54 | > 20000 | 18 | 8 | > 20000 | > 20000 | 16 |  |  |  |  |  | 
15 | CCOC(=O)N1CCC2(CC(N3CCC([C@@H]4CCCN4C(=S)NC)CC3)C2)C1 (single isomer, unassigned) [2-75 Isomer 2] | 2.51 | 109 | 316 | 80 | 4 | > 20000 | > 20000 | 6 |  |  |  |  |  | 
16 | CCOC(=O)N1CCC2(CC(N3CCC(C4c5ccccc5CN4C(=O)NC)CC3)C2)C1 (single isomer, unassigned) [2-76 Isomer 1, ethyl 2-(4-(2-(methylcarbamoyl)-isoindolin-1-yl)piperidin-1-yl)-6-azaspiro[3.4]octane-6-carboxylate] | 39.8 | 114 | 126 | 82 |  | > 20000 | > 20000 | 10 |  |  | 35 |  |  | 
17 | CCOC(=O)N1CCC2(CC(N3CCC(C4c5ccccc5CN4C(=O)NC)CC3)C2)C1 (single isomer, unassigned) [2-76 Isomer 2, ethyl 2-(4-(2-(methylcarbamoyl)-isoindolin-1-yl)piperidin-1-yl)-6-azaspiro[3.4]octane-6-carboxylate] | 12.6 |  | 50.1 |  |  |  |  |  | 107 | 88 | 14 | < 4.7 | < 4.7 | 16
18 | CCOC(=O)N1CCC2(CC(N3CCC([C@@H]4CCCN4c4ccccc4)CC3)C2)C1 (single isomer, unassigned) [2-77 Isomer 2] | 6.31 | 105 | 251 | 51 | 47 | > 20000 | > 20000 | 14 |  |  |  |  |  | 
19 | COC(=O)N1CCC2(CC(N3CCC([C@@H]4CCCN4c4ccccn4)CC3)C2)C1 (single isomer, unassigned) [2-78 Isomer 2] | 126 | 49 | > 20000 | 11 | 5 | > 20000 | 12600 | 27 |  |  |  |  |  | 

From patent US9926297B2, “Bicyclic AZA compounds as muscarinic M1 receptor and/or M4 receptor agonists” (Heptares Therapeutics Limited, priority 2014, dated 2018)
